Experimental data reported in patent publication US5773239A, “Mannosidase inhibitors, process for their preparation and their use as therapeutic agents” (Mount Sinai Hospital Corporation., priority 1995, dated 1998).
pIC50: −log10 of the molar value. Where two headings read alike, the source gives them in different places.

Tests used:
[1] = molecular target: T1, MDAY-D2 lysosomal α-mannosidases (Mus musculus, UniProt O09159); assay: Inhibition of lysosomal α-mannosidases in MDAY-D2 tumor cell lysate; type: biochemical
T1 construct: 10 μl MDAY-D2 tumor cell lysate; endogenous in cells; host or cells: MDAY-D2 tumor cells (lysate)
T1 sequence (O09159 50-1013): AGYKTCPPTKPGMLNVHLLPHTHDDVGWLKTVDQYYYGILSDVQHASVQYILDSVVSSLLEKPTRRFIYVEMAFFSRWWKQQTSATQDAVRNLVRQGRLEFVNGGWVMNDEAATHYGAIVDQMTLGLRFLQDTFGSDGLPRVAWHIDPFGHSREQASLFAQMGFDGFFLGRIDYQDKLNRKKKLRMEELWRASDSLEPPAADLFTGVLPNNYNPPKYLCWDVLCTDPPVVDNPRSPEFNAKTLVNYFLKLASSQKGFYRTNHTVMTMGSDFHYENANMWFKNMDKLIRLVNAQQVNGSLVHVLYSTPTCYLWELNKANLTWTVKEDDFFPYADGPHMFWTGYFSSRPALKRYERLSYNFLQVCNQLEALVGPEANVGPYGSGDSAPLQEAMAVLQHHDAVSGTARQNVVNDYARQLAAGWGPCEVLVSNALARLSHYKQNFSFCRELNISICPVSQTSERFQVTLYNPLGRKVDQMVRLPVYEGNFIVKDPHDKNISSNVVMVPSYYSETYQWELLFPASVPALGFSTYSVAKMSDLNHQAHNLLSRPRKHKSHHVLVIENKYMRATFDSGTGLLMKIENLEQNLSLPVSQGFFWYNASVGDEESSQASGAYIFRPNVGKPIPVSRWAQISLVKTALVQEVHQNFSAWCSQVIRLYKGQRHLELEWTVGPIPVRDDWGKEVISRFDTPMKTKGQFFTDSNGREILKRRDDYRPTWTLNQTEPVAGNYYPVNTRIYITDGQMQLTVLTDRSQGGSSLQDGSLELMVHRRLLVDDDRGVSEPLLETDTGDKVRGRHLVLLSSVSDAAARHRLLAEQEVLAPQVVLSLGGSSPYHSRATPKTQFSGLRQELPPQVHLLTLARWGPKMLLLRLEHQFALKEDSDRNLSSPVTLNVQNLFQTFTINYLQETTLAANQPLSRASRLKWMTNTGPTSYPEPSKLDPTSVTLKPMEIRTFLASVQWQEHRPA
Protocol: SW and analogues were serially diluted into a volume of 75 μl in 96 well Elisa plates followed by the addition of 37.5 μl of 100 mM sodium acetate pH 5.0 and 37.5 μl of 10 mM p-nitrophenyl α-D-mannospyranoside. Jack Bean α-mannosidase (Sigma, 38 U/ml) was diluted 1/800, 10 μl was added to each well and the plates were incubated for 20 min at 37° C. The reaction was stopped by the addition of 150 μl of 0.5M sodium carbonate and formation of p-nitrophenol was measured with a plate set at 405 nm. The effects of SW and analogues on cellular acid α-mannosidases (ie. lysosomal enzyme) were measured using the same assay where Jack Bean α-mannosidase was replaced by 10 μl MDAY-D2 tumor cell lysate (10 μg/μl of protein) prepared in 0.9% NaCl, 50 mM Tris pH 7.0, 0.5% Triton X-100 and 1.0 mM diethyl p-nitrophenyl phosphate.

B16F10 melanoma cells = assay: Lung colonization assay; type: in vivo, C57B1/6J mice; details: for Survivors at day 28: injected i.v.; for survival of mice 28 days after injection of treated tumor cells: versus 2-toluoyloxy-SW treated or untreated B16F10 cells
Protocol: B16F10 melanoma cells were maintained in log-phase growth in MEM plus 10% FCS (Gibco) either untreated or treated for 48 hr with SW or analogues of SW. Cells were harvested with trypsin/EDTA (Gibco), washed and 10^5 melanoma cells in 100 μl of phosphate buffered saline (PBS) were injected into the lateral tail vein of male C57B1/6J mice. The lungs were removed from the mice and tumor nodules were counted at death or on day 28 when the experiment was terminated.
B16F10 melanoma cells were injected into the lateral tail vein of C57B1/6 mice at 10^5 cells/mouse. […] The experiment was terminated on day 28 and lung colonies in the mice were counted.

[2] = MDAY-D2 tumor cell lysate, pH 5.0, read-out: IC50 for inhibition of MDAY-D2 α-mannosidase
[3] = tumor cells cultured 48 hr with 0.02 ug/ml drug
[4] = tumor cells cultured 48 hr with 0.1 ug/ml drug
[5] = tumor cells cultured 48 hr with 1.0 ug/ml drug

O=C(OC1CN2CCCC(O)C2C1O)c1ccccc1 (stereo not drawn) [2-benzoyloxy-SW]
pIC50 [1, 2]: 3.14

CCCC(=O)OC1CN2CCCC(O)C2C1O (stereo not drawn) [2-butanoyloxy-SW]
pIC50 [1, 2]: 4.46

CCCCCCCC(=O)OC1CN2CCCC(O)C2C1O (stereo not drawn) [2-octanoyloxy-SW]
pIC50 [1, 2]: 4.46 | lung colonies (mean ± range) (B16F10 melanoma cells; [3]): 9 (5-17) | Survivors at day 28 (B16F10 melanoma cells; [3]): 3/5 | lung colonies (mean ± range) (B16F10 melanoma cells; [4]): 13 (8-20) | Survivors at day 28 (B16F10 melanoma cells; [4]): 3/5 | lung colonies (mean ± range) (B16F10 melanoma cells; [5]): 1 (0-2) | Survivors at day 28 (B16F10 melanoma cells; [5]): 2/5 | survival of mice 28 days after injection of treated tumor cells (B16F10 melanoma cells): significantly higher

O=C(OC1CN2CCCC(O)C2C1O)c1ccc([N+](=O)[O-])cc1 (stereo not drawn) [2-p-nitrobenzoyloxy-SW]
pIC50 [1, 2]: 4.46

Cc1ccc(C(=O)O[C@@H]2CN3CCC[C@@H](O)[C@@H]3[C@@H]2O)cc1 [2-toluoyloxy-SW]
pIC50 [1, 2]: 4.16 | lung colonies (mean ± range) (B16F10 melanoma cells; [4]): > 100 | Survivors at day 28 (B16F10 melanoma cells; [4]): 0/5 | lung colonies (mean ± range) (B16F10 melanoma cells; [5]): > 100 | Survivors at day 28 (B16F10 melanoma cells; [5]): 0/5

OC1CN2C[C@@H](O)[C@@H](O)[C@H]2[C@H](O)C1O (stereo partly drawn) [6,7-dihydroxy-SW]
pIC50 [1, 2]: 5.00

CCCCCCCCCCCCCC(=O)OC1CCCN2CC(O)C(O)C12 (stereo not drawn) [8-myristinoyloxy-SW]
pIC50 [1, 2]: < 3.30

CCCCCCCCCCCCCCCC(=O)OC1CCCN2CC(O)C(O)C12 (stereo not drawn) [8-palmitoyloxy-SW]
pIC50 [1, 2]: 3.30

O[C@H]1[C@H]2[C@H](O)CCCN2C[C@H]1O [SW, Swainsonine, reference compound]
pIC50 [1]: 6.30 | lung colonies (mean ± range) (B16F10 melanoma cells; [3]): 23 (15-31) | Survivors at day 28 (B16F10 melanoma cells; [3]): 2/5 | lung colonies (mean ± range) (B16F10 melanoma cells; [4]): 5 (2-10) | Survivors at day 28 (B16F10 melanoma cells; [4]): 4/5 | lung colonies (mean ± range) (B16F10 melanoma cells; [5]): 3 (0-4) | Survivors at day 28 (B16F10 melanoma cells; [5]): 4/5 | survival of mice 28 days after injection of treated tumor cells (B16F10 melanoma cells): significantly higher
